{
  "source": "patent US9826761B2",
  "about": "“Compositions and methods for mitigating dietary sulfur in animals” (SarTec Corporation, priority 2008, dated 2017)",
  "key": {"[1]": {"assay": "Titration of approx. 200 mM sulfide in fresh rumen fluid with 1 M metal chloride, silver/sulfide electrode", "set-up": "species or system Holstein cows", "conditions": "for mVolts (Negative Value): ~200 mM sulfide, fresh rumen fluid", "protocol": "Fresh undiluted rumen fluid was obtained from rumen fistulated Holstein cows. 1.5 ml of a saturated solution of Na2S in water (approximately 2.7 M) was added to 18.5 ml of the rumen fluid. Sodium sulfide solutions were quantified by titration using a silver/sulfide electrode (Orion, Ion Plus Silver/Sulfide 9616BNWP) and a commercial lead standard (0.1 M Pb^2+, Orion 948206). The final concentration for sulfide ion in the rumen fluid was approximately 200 mM. This solution was then titrated with a 1 M solution of MnCl2 in water. The progress of the reaction was followed using the silver/sulfide electrode.\nFresh undiluted rumen fluid was obtained from rumen fistulated Holstein cows. 1.5 ml of saturated solution of Na2S in water (approximately 2.7 M) was added to 18.5 ml of the rumen fluid. The final concentration of sulfide ion in the rumen fluid was approximately 200 mM. This solution was then titrated with a 1 M solution of FeCl2 in water. The progress of the reaction was followed using the same silver/sulfide electrode set-up described above (Orion, Ion Plus Silver/Sulfide 9616BNWP).\nData taken from Examples 1 and 2 above were plotted together in order to gauge the relative efficacy of MnCl2 versus FeCl2 in removing sulfide ion from rumen fluid."}, "[2]": {"assay": "Precipitating activity: rumen fluid containing manganese compound titrated with 1.0M Na2S, silver/sulfide electrode", "set-up": "species or system Holstein cows", "conditions": "200 mM MnO(II) in rumen fluid", "protocol": "Next, 0.28 g of MnO(II) was placed in a 100 ml beaker and 20 ml of rumen fluid was added. Then 0.17 g of MnO2(IV) was placed in 100 ml beaker and 20 ml of rumen fluid was added. Each of these compositions, in addition to a rumen fluid control, was then titrated with a 1.0M solution of Na2S. The progress of the reaction was followed using the same silver/sulfide electrode set-up described above (Orion, Ion Plus Silver/Sulfide 9616BNWP)."}},
  "data": [
    {"smiles": "[Cl][Fe][Cl]", "note": "[FeCl2, iron (II) chloride]", "values": [
      {"measurement": "concentration of sulfide ion within the rumen fluid", "setting": "[1]; addition of 1 M titrant to ~200 mM sulfide in fresh rumen fluid", "value": "effective to reduce the concentration of sulfide ion"},
      {"measurement": "total sulfide ion concentrations in the rumen fluid, FeCl2 versus MnCl2", "setting": "[1]; data of Examples 1 and 2 plotted together (FIG. 3)", "value": "lower total sulfide ion concentrations"},
      {"measurement": "mVolts (Negative Value)", "setting": "[1]; titrant volume 0.0 of 1M FeCl2", "value": 937.5, "unit": "mVolts"},
      {"measurement": "mVolts (Negative Value)", "setting": "[1]; titrant volume 0.1 of 1M FeCl2", "value": 937.5, "unit": "mVolts"},
      {"measurement": "mVolts (Negative Value)", "setting": "[1]; titrant volume 0.4 of 1M FeCl2", "value": 935.1, "unit": "mVolts"},
      {"measurement": "mVolts (Negative Value)", "setting": "[1]; titrant volume 0.6 of 1M FeCl2", "value": 906.2, "unit": "mVolts"},
      {"measurement": "mVolts (Negative Value)", "setting": "[1]; titrant volume 0.8 of 1M FeCl2", "value": 926.7, "unit": "mVolts"},
      {"measurement": "mVolts (Negative Value)", "setting": "[1]; titrant volume 1.0 of 1M FeCl2", "value": 916.9, "unit": "mVolts"},
      {"measurement": "mVolts (Negative Value)", "setting": "[1]; titrant volume 1.3 of 1M FeCl2", "value": 905.8, "unit": "mVolts"},
      {"measurement": "mVolts (Negative Value)", "setting": "[1]; titrant volume 1.5 of 1M FeCl2", "value": 886.6, "unit": "mVolts"},
      {"measurement": "mVolts (Negative Value)", "setting": "[1]; titrant volume 1.7 of 1M FeCl2", "value": 869.4, "unit": "mVolts"},
      {"measurement": "mVolts (Negative Value)", "setting": "[1]; titrant volume 1.9 of 1M FeCl2", "value": 849.4, "unit": "mVolts"},
      {"measurement": "mVolts (Negative Value)", "setting": "[1]; titrant volume 2.1 of 1M FeCl2", "value": 833.9, "unit": "mVolts"},
      {"measurement": "mVolts (Negative Value)", "setting": "[1]; titrant volume 2.4 of 1M FeCl2", "value": 817.3, "unit": "mVolts"},
      {"measurement": "mVolts (Negative Value)", "setting": "[1]; titrant volume 2.6 of 1M FeCl2", "value": 816.8, "unit": "mVolts"},
      {"measurement": "mVolts (Negative Value)", "setting": "[1]; titrant volume 2.8 of 1M FeCl2", "value": 767.2, "unit": "mVolts"},
      {"measurement": "mVolts (Negative Value)", "setting": "[1]; titrant volume 3.0 of 1M FeCl2", "value": 735.5, "unit": "mVolts"},
      {"measurement": "mVolts (Negative Value)", "setting": "[1]; titrant volume 3.5 of 1M FeCl2", "value": 634.0, "unit": "mVolts"},
      {"measurement": "mVolts (Negative Value)", "setting": "[1]; titrant volume 3.7 of 1M FeCl2", "value": 622.8, "unit": "mVolts"},
      {"measurement": "mVolts (Negative Value)", "setting": "[1]; titrant volume 3.9 of 1M FeCl2", "value": 616.3, "unit": "mVolts"},
      {"measurement": "mVolts (Negative Value)", "setting": "[1]; titrant volume 4.1 of 1M FeCl2", "value": 610.8, "unit": "mVolts"},
      {"measurement": "mVolts (Negative Value)", "setting": "[1]; titrant volume 4.3 of 1M FeCl2", "value": 607.2, "unit": "mVolts"},
      {"measurement": "mVolts (Negative Value)", "setting": "[1]; titrant volume 4.5 of 1M FeCl2", "value": 603.3, "unit": "mVolts"},
      {"measurement": "mVolts (Negative Value)", "setting": "[1]; titrant volume 4.8 of 1M FeCl2", "value": 600.0, "unit": "mVolts"},
      {"measurement": "mVolts (Negative Value)", "setting": "[1]; titrant volume 5.0 of 1M FeCl2", "value": 595.7, "unit": "mVolts"},
      {"measurement": "mVolts (Negative Value)", "setting": "[1]; titrant volume 5.5 of 1M FeCl2", "value": 590.0, "unit": "mVolts"},
      {"measurement": "mVolts (Negative Value)", "setting": "[1]; titrant volume 6.0 of 1M FeCl2", "value": 586.5, "unit": "mVolts"}
    ]},
    {"smiles": "[O]=[Mn]", "note": "[MnO(II)]", "values": [
      {"measurement": "mVolts", "setting": "[2]; Vol 1M Na2S 0.0", "value": 604.6, "unit": "mVolts"},
      {"measurement": "mVolts", "setting": "[2]; Vol 1M Na2S 0.1", "value": 674.0, "unit": "mVolts"},
      {"measurement": "mVolts", "setting": "[2]; Vol 1M Na2S 0.2", "value": 702.9, "unit": "mVolts"},
      {"measurement": "mVolts", "setting": "[2]; Vol 1M Na2S 0.4", "value": 724.5, "unit": "mVolts"},
      {"measurement": "mVolts", "setting": "[2]; Vol 1M Na2S 0.5", "value": 745.7, "unit": "mVolts"},
      {"measurement": "mVolts", "setting": "[2]; Vol 1M Na2S 0.6", "value": 760.6, "unit": "mVolts"},
      {"measurement": "mVolts", "setting": "[2]; Vol 1M Na2S 0.7", "value": 777.3, "unit": "mVolts"},
      {"measurement": "mVolts", "setting": "[2]; Vol 1M Na2S 0.8", "value": 789.8, "unit": "mVolts"},
      {"measurement": "mVolts", "setting": "[2]; Vol 1M Na2S 0.9", "value": 803.7, "unit": "mVolts"},
      {"measurement": "mVolts", "setting": "[2]; Vol 1M Na2S 1.0", "value": 803.9, "unit": "mVolts"},
      {"measurement": "mVolts", "setting": "[2]; Vol 1M Na2S 1.1", "value": 825.2, "unit": "mVolts"},
      {"measurement": "mVolts", "setting": "[2]; Vol 1M Na2S 1.3", "value": 833.7, "unit": "mVolts"},
      {"measurement": "mVolts", "setting": "[2]; Vol 1M Na2S 1.4", "value": 843.1, "unit": "mVolts"},
      {"measurement": "mVolts", "setting": "[2]; Vol 1M Na2S 1.5", "value": 848.0, "unit": "mVolts"},
      {"measurement": "mVolts", "setting": "[2]; Vol 1M Na2S 1.6", "value": 852.1, "unit": "mVolts"}
    ]}
  ]
}
